From US11414404B2, “Compounds for the treatment of BRAF-associated diseases and disorders” (Array BioPharma Inc., priority 2019, dated 2022)
Structures can show the parent of a compound that is named as a salt. Where two headings read alike, the source gives them in different places.

Key:
[1] = system: LLC-PK1 or MDCKII cell monolayer; experiment: MDR1 LLC-PK1 and BCRP MDCKII permeability assay: permeability coefficient (Papp); conditions: permeability coefficient Papp; test article 1 μM; 2 hours, 37° C.
Description: (§4) Both LLC-PK1 and MDR1 transfected LLC-PK1 cells were cultured and plated according to manufacturer's recommendations with the exception that the passage media contained only 2% fetal bovine serum to extend passage time out to seven days.
(§5) BCRP transfected MDCKII cells were cultured and plated according to manufacturer's recommendations. Assay conditions included with and without the BCRP-specific inhibitor, K0143, at a concentration of 0.3 μM to ascertain the contribution of BCRP to the efflux value of the test compound.
(§6) Both positive and negative controls were used to assess functionality of P-gp or BCRP efflux in the assays. […] Final organic concentration in the assay was 1%. All dosing solutions contained 10 μM lucifer yellow to monitor LLC-PK1 or MDCKII cell monolayer integrity.
(§7) For the apical to basolateral determination (A to B), 75 μL of the test article in transport buffer were added to the apical side of the individual transwells and 250 μL of basolateral media, without compound or lucifer yellow, were added to each well. For the basolateral to apical determination (B to A), 250 μL of test article in transport buffer were added to each well and 75 μL transport buffer, without compound or lucifer yellow, were added to each transwell. All tests were performed in triplicate, and each compound was tested for both apical to basolateral and basolateral to apical transport. The plates were incubated for 2 hours on a Lab-Line Instruments Titer Orbital Shaker (VWR, West Chester, Pa.) at 50 rpm and 37° C. with 5% CO2. All culture plates were removed from the incubator and 50 μL of media were removed from the apical and basolateral portion of each well and added to 150 μL of 1 μM labetalol in 2:1 acetonitrile (acetonitrile): H2O, v/v.
(§8) These values were accepted when found to be below 2% for apical to basolateral and 5% basolateral to apical flux across the MDR1-transfected LLC-PK1 or BCRP-transfected MDCKII cell monolayers. The plates were sealed and the contents of each well analyzed by LC-MS/MS. The compound concentrations were determined from the ratio of the peak areas of the compound to the internal standard (labetalol) in comparison to the dosing solution.
(§9) The LC-MS/MS system was comprised of an HTS-PAL autosampler (Leap Technologies, Carrboro, N.C.), an HP1200 HPLC (Agilent, Palo Alto, Calif.), and a MDS Sciex 4000 Q Trap system (Applied Biosystems, Foster City, Calif.). […] The total run time, including re-equilibration, for a single injection was 1.2 minutes. Mass spectrometric detection of the analytes was accomplished using the ion spray positive mode.
(§10) where Cd, V, t and C0 are the detected concentration (μM), the volume on the dosing side (mL); the incubation time (s) and the initial dosing concentration (μM), respectively. The calculations for Papp were made for each replicate and then averaged.

[2] = molecular target: full-length FLAG-tagged B-Raf(V600E) (Homo sapiens (Human), UniProt P15056, V600E); experiment: BRAF V600E enzyme assay (TR-FRET competitive displacement of fluorescent tracer); type: binding; conditions: averaged IC50; 60 min at ambient temperature; 11-point dosing, top dose 10 μM
full-length FLAG-tagged B-Raf(V600E), sequence (P15056 whole entry V600E): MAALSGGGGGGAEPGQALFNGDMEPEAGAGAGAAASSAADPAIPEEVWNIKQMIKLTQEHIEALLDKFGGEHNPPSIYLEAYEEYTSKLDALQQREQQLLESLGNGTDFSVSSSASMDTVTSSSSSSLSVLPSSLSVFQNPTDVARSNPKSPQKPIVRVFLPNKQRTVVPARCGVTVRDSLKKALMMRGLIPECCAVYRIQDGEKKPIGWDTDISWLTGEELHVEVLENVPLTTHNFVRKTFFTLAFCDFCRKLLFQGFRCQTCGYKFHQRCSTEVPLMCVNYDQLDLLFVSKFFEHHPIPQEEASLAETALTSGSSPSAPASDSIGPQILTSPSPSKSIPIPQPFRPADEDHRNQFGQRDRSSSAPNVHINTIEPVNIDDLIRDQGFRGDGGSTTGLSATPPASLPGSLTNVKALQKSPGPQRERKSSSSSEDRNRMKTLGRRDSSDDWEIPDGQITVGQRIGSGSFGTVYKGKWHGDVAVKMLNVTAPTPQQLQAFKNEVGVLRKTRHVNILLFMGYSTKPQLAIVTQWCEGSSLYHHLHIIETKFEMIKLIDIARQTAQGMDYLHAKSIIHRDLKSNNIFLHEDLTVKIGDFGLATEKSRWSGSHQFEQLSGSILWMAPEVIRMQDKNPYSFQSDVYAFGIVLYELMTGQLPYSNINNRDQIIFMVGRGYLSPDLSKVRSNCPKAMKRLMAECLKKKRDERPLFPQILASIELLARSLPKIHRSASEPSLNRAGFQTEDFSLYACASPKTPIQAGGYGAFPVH
Source text: (§1) A competitive displacement assay was configured for B-Raf that monitors the amount of a fluorescently-tagged “tracer” bound to B-Raf via TR-FRET from an anti-tag Eu-labeled antibody also bound to B-Raf.
(§2) [formula] • where: • Xmax Average Uninhibited Controls • Xmin Average Background
(§3) A 4-parameter logistic model was the fit to the POC data for each compound.

P-gp (MDR1) = P-gp (MDR1) (Homo sapiens (Human), UniProt P08183); experiment: MDR1 LLC-PK1 permeability assay: efflux ratio; conditions: for MDR1 efflux ratio: MDR1 transfected LLC-PK1 cells, Papp(B−A)/Papp(A−B), test article 1 μM, 2 hours; for efflux ratio at 2 h, 1 µM: pig, LLC-PK1
P-gp (MDR1), sequence (P08183 whole entry, species assumed): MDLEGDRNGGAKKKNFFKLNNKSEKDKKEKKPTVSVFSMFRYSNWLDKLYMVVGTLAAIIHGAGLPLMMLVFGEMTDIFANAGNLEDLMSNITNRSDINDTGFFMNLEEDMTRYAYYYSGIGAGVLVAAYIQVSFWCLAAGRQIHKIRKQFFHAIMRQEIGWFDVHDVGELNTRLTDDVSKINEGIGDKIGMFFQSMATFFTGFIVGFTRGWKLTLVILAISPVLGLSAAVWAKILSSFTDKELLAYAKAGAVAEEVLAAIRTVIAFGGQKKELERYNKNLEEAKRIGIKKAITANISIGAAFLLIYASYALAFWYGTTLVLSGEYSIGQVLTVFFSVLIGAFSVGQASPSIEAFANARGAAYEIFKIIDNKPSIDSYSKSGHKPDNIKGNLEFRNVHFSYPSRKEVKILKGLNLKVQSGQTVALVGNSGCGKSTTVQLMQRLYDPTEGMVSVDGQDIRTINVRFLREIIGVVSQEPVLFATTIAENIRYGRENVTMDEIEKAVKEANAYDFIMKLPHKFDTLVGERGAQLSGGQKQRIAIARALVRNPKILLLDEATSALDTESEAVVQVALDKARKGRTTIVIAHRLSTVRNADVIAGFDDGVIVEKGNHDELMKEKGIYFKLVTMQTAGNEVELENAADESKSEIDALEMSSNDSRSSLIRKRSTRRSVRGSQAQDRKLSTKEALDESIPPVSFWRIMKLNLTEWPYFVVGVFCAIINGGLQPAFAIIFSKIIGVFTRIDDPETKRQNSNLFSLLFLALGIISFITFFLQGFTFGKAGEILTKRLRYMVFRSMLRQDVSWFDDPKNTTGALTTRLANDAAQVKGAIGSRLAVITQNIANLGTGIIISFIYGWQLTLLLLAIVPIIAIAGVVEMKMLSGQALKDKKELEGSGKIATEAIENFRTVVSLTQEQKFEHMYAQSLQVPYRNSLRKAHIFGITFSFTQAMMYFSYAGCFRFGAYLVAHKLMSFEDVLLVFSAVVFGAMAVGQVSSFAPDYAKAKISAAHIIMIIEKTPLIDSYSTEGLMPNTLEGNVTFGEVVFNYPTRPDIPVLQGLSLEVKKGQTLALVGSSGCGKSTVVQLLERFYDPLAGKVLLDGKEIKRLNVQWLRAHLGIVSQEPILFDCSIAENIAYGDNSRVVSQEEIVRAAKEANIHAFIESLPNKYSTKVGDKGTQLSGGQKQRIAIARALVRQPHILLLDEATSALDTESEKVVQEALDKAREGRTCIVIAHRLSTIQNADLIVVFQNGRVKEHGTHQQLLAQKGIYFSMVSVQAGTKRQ

BCRP = BCRP (Homo sapiens (Human), UniProt Q9UNQ0); experiment: BCRP MDCKII permeability assay: efflux ratio; conditions: for BCRP efflux ratio: BCRP transfected MDCKII cells, Papp(B−A)/Papp(A−B), test article 1 μM, 2 hours; for efflux ratio at 2 h, 1 µM: dog
BCRP, sequence (Q9UNQ0 whole entry, species assumed): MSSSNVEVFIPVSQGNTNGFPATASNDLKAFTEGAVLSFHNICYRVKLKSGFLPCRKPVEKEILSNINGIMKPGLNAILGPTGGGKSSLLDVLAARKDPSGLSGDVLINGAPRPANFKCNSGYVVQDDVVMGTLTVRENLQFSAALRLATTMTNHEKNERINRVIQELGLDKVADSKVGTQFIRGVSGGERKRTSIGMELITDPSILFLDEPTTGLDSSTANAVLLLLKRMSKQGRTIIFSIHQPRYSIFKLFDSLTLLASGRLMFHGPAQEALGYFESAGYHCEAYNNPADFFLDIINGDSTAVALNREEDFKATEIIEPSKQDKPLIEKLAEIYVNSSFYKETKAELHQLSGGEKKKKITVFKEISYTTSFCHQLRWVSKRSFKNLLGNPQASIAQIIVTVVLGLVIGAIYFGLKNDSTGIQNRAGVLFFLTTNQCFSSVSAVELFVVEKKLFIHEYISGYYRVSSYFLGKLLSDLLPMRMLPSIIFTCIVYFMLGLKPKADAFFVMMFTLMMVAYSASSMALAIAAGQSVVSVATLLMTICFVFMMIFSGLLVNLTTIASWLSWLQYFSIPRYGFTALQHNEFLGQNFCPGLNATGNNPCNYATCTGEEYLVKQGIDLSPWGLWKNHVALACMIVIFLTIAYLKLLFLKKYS

[3] = MDR1 LLC-PK1 and BCRP MDCKII permeability assay: permeability coefficient (Papp)
Description: as §4, §5, §6, §7, §8, §9, §10

[4] = molecular target: N-terminally GST-tagged B-Raf(V600K) (Homo sapiens, UniProt P15056, V600K); experiment: BRAF V600K enzyme assay (TR-FRET competitive displacement of fluorescent tracer); type: binding; conditions: averaged IC50; 60 min at ambient temperature; 11-point dosing, top dose 10 μM
N-terminally GST-tagged B-Raf(V600K), sequence (P15056 2-766 V600K limits assumed): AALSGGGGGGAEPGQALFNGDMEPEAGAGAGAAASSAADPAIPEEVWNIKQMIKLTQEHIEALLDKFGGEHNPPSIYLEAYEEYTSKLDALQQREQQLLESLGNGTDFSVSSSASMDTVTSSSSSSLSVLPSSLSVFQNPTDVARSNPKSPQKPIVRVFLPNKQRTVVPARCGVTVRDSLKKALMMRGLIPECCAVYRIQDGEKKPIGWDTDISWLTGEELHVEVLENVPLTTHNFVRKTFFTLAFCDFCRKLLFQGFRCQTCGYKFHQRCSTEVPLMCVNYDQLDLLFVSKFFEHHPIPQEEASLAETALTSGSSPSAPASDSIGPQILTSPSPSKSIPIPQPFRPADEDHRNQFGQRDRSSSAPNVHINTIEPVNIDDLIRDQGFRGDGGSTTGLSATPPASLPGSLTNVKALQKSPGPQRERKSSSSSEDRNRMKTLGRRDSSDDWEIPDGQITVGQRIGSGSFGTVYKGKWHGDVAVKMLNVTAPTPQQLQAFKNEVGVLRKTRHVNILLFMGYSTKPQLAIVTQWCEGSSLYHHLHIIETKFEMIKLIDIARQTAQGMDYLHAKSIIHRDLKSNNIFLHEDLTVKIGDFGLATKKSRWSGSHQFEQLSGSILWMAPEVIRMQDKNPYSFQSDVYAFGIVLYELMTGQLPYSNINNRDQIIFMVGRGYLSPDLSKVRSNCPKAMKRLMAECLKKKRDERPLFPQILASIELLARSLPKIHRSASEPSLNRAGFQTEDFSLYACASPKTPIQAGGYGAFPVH
Source text: as §1, §2, §3

[5] = PK (free brain-to-free plasma ratio) (mouse); type: in vivo; conditions: mouse; unbound brain-to-unbound plasma concentration ratio; male CD-1 mice; oral gavage 10 mg/kg; sampling 2-24 hours; read-out: B/P ratio (free)
Description: PK (Free Brain-to-Free Plasma Ratio) (Mouse)
The ability of representative compounds to penetrate the BBB in mice was determined by evaluating the unbound brain-to-unbound plasma (also referred to as free brain-to-free plasma) concentration ratio in male CD-1 mice.
Brain samples were stored at −20±5° C. prior to analysis. Concentrations of test compound in mouse brain homogenate were determined by liquid chromatography tandem mass spectrometry (LC-MS/MS) following protein precipitation with acetonitrile. A 12-point calibration curve, ranging from 0.5 to 10,000 ng/mL, was prepared in duplicate. A solution of 400 μg/mL of test compound in dimethyl sulfoxide (DMSO) was serially diluted (3-fold) in 100% DMSO, and then 2.5 μL of each standard solution was added to 100 μL of naïve male CD-1 mice brain homogenate. To mimic the extraction in the standard curve, 2.5 μL of DMSO was added to all test samples. Both calibration and test brain homogenate samples were spiked with 10 μL of an IS (1 μg/mL of a structural analog). Brain homogenate was generated by adding 0.75 mL of 4:1 water:MeOH to each brain sample followed by homogenization for 1 minute with bead beater tubes a 6 m/s using an MP Fast Prep-24®. Proteins were precipitated from 100 μL of brain homogenate sample by the addition of 300 μL of acetonitrile. […] A 100 μL aliquot of each supernatant was transferred via a 550 μL Personal Pipettor (Apricot Designs, Monrovia, Calif.) to 96-well plates and diluted 1:1 with HPLC grade water. The resulting plates were sealed with aluminum for LC-MS/MS analysis.
Brain-to-plasma ratios were calculated using the concentration of compound measured in the brain divided by the concentration of compound measured in the plasma. Brain-to-plasma ratios were always generated from a single animal and time point. Free brain-to-free plasma ratios were calculated by multiplying the brain-to-plasma ratio by the in vitro brain homogenate free fraction divided by the in vitro plasma free fraction using the following equation: (B/P)*(Bfu/Pfu).

[6] = system: LLC-PK1 or MDCKII cell monolayer
Description: as §4, §5, §6, §7, §8, §9, §10

Row | Compound | Papp at 2 h, 1 µM [3] [nm/s] | IC50 [4] [µM] | efflux ratio at 2 h, 1 µM (P-gp (MDR1)) | efflux ratio at 2 h, 1 µM (BCRP) | Kp,uu (unbound brain/unbound plasma ratio) [5] | Permeability [1] | IC50 [2] [µM] | MDR1 efflux ratio (P-gp (MDR1)) | BCRP efflux ratio (BCRP) | Permeability [6]
1 | N-(3-chloro-4-((3,5-dimethyl-4-oxo-3,4-dihydroquinazolin-6-yl)amino)-5-fluoropyridin-2-yl)ethanesulfonamide [Example 45] | – | – | – | – | – | 16.56 *10^−6 cm/s | 0.137 | 2.47 | 11.29 | –
2 | N-(2-chloro-3-((3,5-dimethyl-4-oxo-3,4-dihydroquinazolin-6-yl)amino)-4-fluorophenyl)-1-cyclopropylmethanesulfonamide [Example 50] | – | – | – | – | – | 21.88 *10^−6 cm/s | 0.0661 | 1.54 | 1.13 | –
3 | N-(2-chloro-3-((3,5-dimethyl-4-oxo-3,4-dihydroquinazolin-6-yl)amino)-4-fluorophenyl)ethanesulfonamide [Example 52] | – | – | – | – | – | 28.91 *10^−6 cm/s | 0.226 | 1.76 | 1.28 | –
4 | CCCS(=O)(=O)Nc1cc(Cl)cc(Nc2ccc3ncn(C)c(=O)c3c2C)c1Cl [Example 48, N-(2,5-dichloro-3-((3,5-dimethyl-4-oxo-3,4-dihydroquinazoli-6-yl)amino)phenyl)propane-1-sulfonamide] | – | – | – | – | – | – | 0.003 | – | – | 25.83 *10^−6 cm/s
5 | N-(4-((3,5-dimethyl-4-oxo-3,4-dihydroquinazolin-6-yl)amino)-3,5-difluoropyridin-2-yl)ethanesulfonamide [Example 43] | – | – | – | – | – | 8.75 *10^−6 cm/s | 0.26 | 5.24 | 26.02 | –
6 | Cc1c(Nc2cccc(NS(=O)(=O)CCCF)c2Cl)ccc2ncn(C)c(=O)c12 [Example 4] | 346 | 0.0081 | 1.14 | 1.85 | 0.35 to 1.6 | – | 0.0161 | – | – | –
7 | CCCS(=O)(=O)Nc1cccc(Nc2ccc3ncn(C)c(=O)c3c2C)c1C#N [Example 53, N-(2-cyano-3-((3,5-dimethyl-4-oxo-3,4-dihdyroquinazolin-6-yl)amino)phenyl)propane-1-sulfonamide] | – | – | – | – | – | – | 0.0094 | – | – | 27.13 *10^−6 cm/s
8 | N-(3-chloro-4-((3,5-dimethyl-4-oxo-3,4-dihydroquinazolin-6-yl)amino)-5-fluoropyridin-2-yl)-1-cyclopropylmethanesulfonamide [Example 47] | – | – | – | – | – | 25.7 *10^−6 cm/s | 0.0417 | 1.84 | 7.93 | –
9 | CCCS(=O)(=O)Nc1ccc(F)c(Nc2ccc3ncn(C)c(=O)c3c2C)c1F [Example 1, N-(3-((3,5-dimethyl-4-oxo-3,4-dihydroquinazolin-6-yl)amino)-2,4-difluorophenyl)propane-1-sulfonamide] | 349 | 0.0085 | 1.68 | 3.4 | 0.3 to 0.62 | – | 0.0427 | – | – | –
10 | CCN(C)S(=O)(=O)Nc1ccc(F)c(Nc2ccc3ncn(C)c(=O)c3c2C)c1Cl [Example 54, N-(2-chloro-3-((3,5-dimethyl-4-oxo-3,4-dihydroquinazolin-6-yl)amino)-4-fluorophenyl)-N-ethyl-N-methylamino-1-sulfonamide] | – | – | – | – | – | – | 0.188 | – | – | 35.81 *10^−6 cm/s
11 | N-(2-chloro-3-((3,5-dimethyl-4-oxo-3,4-dihydroquinazolin-6-yl)amino)-4-fluorophenyl)-2-methylpropane-1-sulfonamide [Example 51] | – | – | – | – | – | 27.16 *10^−6 cm/s | 0.0634 | 1.64 | 1.28 | –
12 | 1-cyclopropyl-N-(4-((3,5-dimethyl-4-oxo-3,4-dihydroquinazolin-6-yl)amino)-3,5-difluoropyridin-2-yl)methanesulfonamide [Example 42] | – | – | – | – | – | 18.35 *10^−6 cm/s | 0.0603 | 5.26 | 23.73 | –

Second part, led by results:

Row | Papp at 2 h, 1 µM [3] [nm/s] | IC50 [4] [µM] | efflux ratio at 2 h, 1 µM (P-gp (MDR1)) | efflux ratio at 2 h, 1 µM (BCRP) | Kp,uu (unbound brain/unbound plasma ratio) [5] | Compound | Permeability [1] | IC50 [2] [µM] | MDR1 efflux ratio (P-gp (MDR1)) | BCRP efflux ratio (BCRP) | Permeability [6]
13 | 278 | 0.0065 | 1.26 | 1.23 | 0.76 to 1.04 | CCCS(=O)(=O)Nc1ccc(F)c(Nc2ccc3ncn(C)c(=O)c3c2C)c1Cl [Example 9, N-(2-chloro-3-((3,5-dimethyl-4-oxo-3,4-dihydroquinazolin-6-yl)amino)-4-fluorophenyl)propane-1-sulfonamide] | – | 0.0197 | – | – | –
14 | 263 | 0.0022 | 1.3 | 1.64 | 0.87 to 1.19 | CCCS(=O)(=O)Nc1cc(F)c(F)c(Nc2ccc3ncn(C)c(=O)c3c2C)c1Cl [Example 7, N-(2-chloro-3-((3,5-dimethyl-4-oxo-3,4-dihydroquinazolin-6-yl)amino)-4,5-difluorophenyl)propane-1-sulfonamide] | – | 0.0013 | – | – | –
15 | 276 | 0.0028 | 1.8 | 1.8 | 0.4 to 0.49 | Cc1c(Oc2c(F)ccc(NS(=O)(=O)CCCF)c2Cl)ccc2ncn(C)c(=O)c12 [Example 67, N-{2-chloro-3-[(3,5-dimethyl-4-oxo-3,4-dihydroquinazolin-6-yl)oxy]-4-fluorophenyl}-3-fluoropropane-1-sulfonamide] | – | 0.002 | – | – | –
16 | – | – | 8.89 | 7.68 | 0.08 to 0.14 | Cn1cnc2ccc(Nc3c(F)ccc(NS(=O)(=O)CCCF)c3Cl)cc2c1=O [WO 2012/118492 Example 34, reference compound] | – | – | – | – | –
17 | – | – | 1.9 | 8.6 | 0.12 to 0.15 | Cn1cnc2ccc(Nc3c(F)ccc(NS(=O)(=O)CCCF)c3Cl)c(Cl)c2c1=O [WO 2012/118492 Ex. 37, reference compound] | – | – | – | – | –
18 | 287 | – | 2.2 | 2.87 | – | CCCS(=O)(=O)Nc1ccc(Cl)c(Nc2ccc3ncn(C)c(=O)c3c2C)c1F [Example 40, N-(4-chloro-3-((3,5-dimethyl-4-oxo-3,4-dihydroquinazolin-6-yl)amino)-2-fluorophenyl)propane-1-sulfonamide] | – | 0.0439 | – | – | –
19 | 345 | – | 1.4 | 2.09 | – | COCCS(=O)(=O)Nc1ccc(F)c(Nc2ccc3ncn(C)c(=O)c3c2C)c1Cl [Example 27, N-(2-chloro-3-((3,5-dimethyl-4-oxo-3,4-dihydroquinazolin-6-yl)amino)-4-fluorophenyl)-2-methoxyethane-1-sulfonamide] | – | 0.207 | – | – | –
20 | 156 | – | 0.86 | 1 | – | CCCS(=O)(=O)Nc1ccc(F)c(Nc2ccc3ncn(-c4ccccc4)c(=O)c3c2C)c1Cl [Example 32, N-(2-chloro-4-fluoro-3-((5-methyl-4-oxo-3-phenyl-3,4-dihydroquinazolin-6-yl)amino)phenyl)propane-1-sulfonamide trifluoroacetate] | – | 0.0927 | – | – | –
